From patent publication US12227482B2, “Compounds and compositions for the treatment of cancer” (The Regents of the University of California, priority 2016, dated 2025) come the findings set out here.

The structures appear in SMILES notation.

Common to all, as to type: cell-based
One assay relates to A549 cells. The assay can be described thus: Cell viability (CellTiter-Glo ATP content) in A549 cells. The note with it: Homo sapiens, A549, 72 h, 72 hours treatment, cell survival by CellTiter-Glo, 2% fetal bovine serum. How it is done:
(§1) Logarithmically growing A549, LOX and MelJuSo cells (ATCC) were plated in antibiotic-free RPMI medium (Coming) supplemented with 2% fetal bovine serum (Gemini Bio-products) at a density of 5,000 cells per well in clear-bottom 96-well plates. The next day cells were treated (triplicates) with increasing doses of a compound of the present disclosure (dissolved in DMSO) and DMSO vehicle controls (final DMSO concentration of 0.5%) for 72 hours and subsequently assessed for cell viability by measuring ATP content with CellTiter-Glo Luminescent Cell Viability Assay (Promega). Signal intensity was measured on a Glomax™ 96 Microplate Luminometer (Promega) and percent cell survival was calculated based on the reading of vehicle control cells set as 100%.

In the next assay the test system is LOX cells. The assay can be described thus: Cell viability (CellTiter-Glo ATP content) in LOX cells. The settings on record: LOX, 72 h, 72 hours treatment, cell survival by CellTiter-Glo, 2% fetal bovine serum. How it is done:
as §1

Another assay relates to MelJuSo cells. The assay can be described thus: Cell viability (CellTiter-Glo ATP content) in MelJuSo cells. The note with it: Homo sapiens, MEL-JUSO, 72 hours treatment, cell survival by CellTiter-Glo, 2% fetal bovine serum. As to the method:
as §1

Turning to `CCCCC1C(c2ccc(F)cc2)=NN(c2ccc(F)cc2F)C1(C)C(=O)NCCO` (stereo not drawn) [Compound 84, 4-butyl-1-(2,4-difluorophenyl)-3-(4-fluorophenyl)-N-(2-hydroxyethyl)-5-methyl-4,5-dihydro-1H-pyrazole-5-carboxamide], the IC50 in the assay with A549 cells was 1 to 2 µM; in the assay on LOX cells it was 1 to 2 µM; in the assay with MelJuSo cells, 0.5 to 1 µM.
Take `CCCCC1C(c2ccc(F)cc2)=NN(c2ccccc2)C1(C)C(=O)NCC1CCCCC1` (stereo not drawn) [Compound 51, 4-butyl-N-(cyclohexylmethyl)-3-(4-fluorophenyl)-5-methyl-1-phenyl-4,5-dihydro-1H-pyrazole-5-carboxamide]: the IC50 with A549 cells, with LOX cells and in the assay on MelJuSo cells was greater than 2 µM in each case.
For the compound `CCCCC1C(c2ccc(F)cc2)=NN(c2ccc(C)cc2)C1(C)C(=O)NCCCC(C)(C)CO` (stereo not drawn) [Compound 15, 4-butyl-3-(4-fluorophenyl)-N-(5-hydroxy-4,4-dimethylpentyl)-5-methyl-1-p-tolyl-4,5-dihydro-1H-pyrazole-5-carboxamide], the IC50 fell in the range of 1 to 2 µM in the assay on A549 cells, 0.25 to 0.5 µM with LOX cells and 0.25 to 0.5 µM with MelJuSo cells.
Consider `COCCNC(=O)C1(C)C(c2ccoc2)C(c2ccc(F)cc2F)=NN1c1ccc(F)cc1F` (stereo not drawn) [Compound 130, 1,3-bis(2,4-difluorophenyl)-4-(furan-3-yl)-N-(2-methoxyethyl)-5-methyl-4,5-dihydro-1H-pyrazole-5-carboxamide], for which the IC50 in the assay with A549 cells was greater than 2 µM; in the assay on LOX cells, greater than 2 µM; with MelJuSo cells, 0.5 to 1 µM.
With `CCCCC1C(c2ccc(F)cc2)=NN(c2ccc(C)cc2)C1(C)C(=O)NCCCOC` (stereo not drawn) [Compound 16, 4-butyl-3-(4-fluorophenyl)-N-(3-methoxypropyl)-5-methyl-1-p-tolyl-4,5-dihydro-1H-pyrazole-5-carboxamide], the values for the half-inhibitory concentration (IC50) in the assay on A549 cells, with LOX cells and with MelJuSo cells were greater than 2 µM, greater than 2 µM and 0.5 to 1 µM, respectively.
With `CCCCC1C(c2ccc(F)cc2)=NN(c2ccc(C(F)(F)F)cc2)C1(C)C(=O)NCCCC(C)(C)CO` (stereo not drawn) [Compound 28, 4-butyl-3-(4-fluorophenyl)-N-(5-hydroxy-4,4-dimethylpentyl)-5-methyl-1-(4-(trifluoromethyl)phenyl)-4,5-dihydro-1H-pyrazole-5-carboxamide], the IC50 in the assay on A549 cells was greater than 2 µM; in the assay with LOX cells, 1 to 2 µM; in the assay on MelJuSo cells, 1 to 2 µM.
Take `CCCCC1C(c2ccc(F)cc2)=NN(c2ccccc2)C1(C)C(=O)N(CCO)Cc1ccccc1` (stereo not drawn) [Compound 78, N-benzyl-4-butyl-3-(4-fluorophenyl)-N-(2-hydroxyethyl)-5-methyl-1-phenyl-4,5-dihydro-1H-pyrazole-5-carboxamide]: the IC50 in the assay on A549 cells, with LOX cells and with MelJuSo cells was greater than 2 µM in each case.
Turning to `CN1CCOC(CNC(=O)C2(C)C(c3ccc(Cl)o3)C(c3ccc(F)cc3F)=NN2c2ccc(F)cc2F)C1` (stereo not drawn) [Compound 135, 4-(5-chlorofuran-2-yl)-1,3-bis(2,4-difluorophenyl)-5-methyl-N-((4-methylmorpholin-2-yl)methyl)-4,5-dihydro-1H-pyrazole-5-carboxamide], the IC50 in the assay with A549 cells, in the assay with LOX cells and with MelJuSo cells was less than 0.25 µM each time.
Regarding `CCCCC1C(c2ccc(F)c(F)c2)=NN(c2ccccc2)C1(C)C(=O)NCCCCC(C)(C)O` (stereo not drawn) [Compound 10, 4-butyl-3-(3,4-difluorophenyl)-N-(5-hydroxy-5-methylhexyl)-5-methyl-1-phenyl-4,5-dihydro-1H-pyrazole-5-carboxamide], the IC50 with A549 cells was greater than 2 µM; with LOX cells, 1 to 2 µM; in the assay with MelJuSo cells it was 0.5 to 1 µM.
The matching figures for `CCCCC1C(c2ccc(F)cc2)=NN(c2ccccc2)C1(C)C(=O)NCC(C)(C)N(C)C` (stereo not drawn) [Compound 74, 4-butyl-N-(2-(dimethylamino)-2-methylpropyl)-3-(4-fluorophenyl)-5-methyl-1-phenyl-4,5-dihydro-1H-pyrazole-5-carboxamide]: greater than 2 µM, greater than 2 µM and greater than 2 µM.
The corresponding values for `CCCCC1C(c2ccc(F)cc2)=NN(c2ccccc2)C1(C)C(=O)NCCCN1CCCCC1` (stereo not drawn) [Compound 71, 4-butyl-3-(4-fluorophenyl)-5-methyl-1-phenyl-N-(3-(piperidin-1-yl)propyl)-4,5-dihydro-1H-pyrazole-5-carboxamide] are greater than 2 µM, greater than 2 µM and greater than 2 µM.
For `CC1(C(=O)NCC(=O)NCCS(C)(=O)=O)C(c2cccs2)C(c2ccc(F)cc2)=NN1c1ccc(F)cc1F` (stereo not drawn) [Compound 109, 1-(2,4-difluorophenyl)-3-(4-fluorophenyl)-5-methyl-N-(2-(2-(methylsulfonyl)ethylamino)-2-oxoethyl)-4-(thiophen-2-yl)-4,5-dihydro-1H-pyrazole-5-carboxamide], the IC50 with A549 cells, with LOX cells and with MelJuSo cells was greater than 2 µM throughout.
For the compound `CCCCC1C(c2ccc(F)cc2)=NN(c2ccccc2)C1(C)C(=O)NCc1ccc(CN2CCOCC2)cc1` (stereo not drawn) [Compound 80, 4-butyl-3-(4-fluorophenyl)-5-methyl-N-(4-(morpholinomethyl)benzyl)-1-phenyl-4,5-dihydro-1H-pyrazole-5-carboxamide], the IC50 with A549 cells, in the assay with LOX cells and with MelJuSo cells was greater than 2 µM throughout.
As to `CC(C)(CO)CCCNC(=O)C1(C)C(c2ccoc2)C(c2ccc(F)cc2F)=NN1c1ccc(F)cc1F` (stereo not drawn) [Compound 129, 1,3-bis(2,4-difluorophenyl)-4-(furan-3-yl)-N-(5-hydroxy-4,4-dimethylpentyl)-5-methyl-4,5-dihydro-1H-pyrazole-5-carboxamide], the IC50 in the assay on A549 cells lay in the range of 0.5 to 1 µM; in the assay with LOX cells, 0.5 to 1 µM; in the assay on MelJuSo cells it was 0.25 to 0.5 µM.
For the compound `CCCCC1C(c2ccc(F)cc2)=NN(c2ccc(F)cc2F)C1(C)C(=O)NCCC#N` (stereo not drawn) [Compound 83, 4-butyl-N-(2-cyanoethyl)-1-(2,4-difluorophenyl)-3-(4-fluorophenyl)-5-methyl-4,5-dihydro-1H-pyrazole-5-carboxamide], the results for the IC50 with A549 cells, in the assay on LOX cells and in the assay with MelJuSo cells were 1 to 2 µM, 1 to 2 µM and 0.5 to 1 µM, respectively.
For the compound `CCCCC1C(c2ccc(F)cc2)=NN(c2ccccc2)C1(C)C(=O)NCc1cccc(OC)c1OC` (stereo not drawn) [Compound 45, 4-butyl-N-(2,3-dimethoxybenzyl)-3-(4-fluorophenyl)-5-methyl-1-phenyl-4,5-dihydro-1H-pyrazole-5-carboxamide], the IC50 in the assay with A549 cells, in the assay on LOX cells and with MelJuSo cells was greater than 2 µM each time.
On to `CCCCC1C(c2ccc(Cl)cc2F)=NN(c2ccccc2)C1(C)C(=O)NCCCC(C)(C)CO` (stereo not drawn) [Compound 53, 4-butyl-3-(4-chloro-2-fluorophenyl)-N-(5-hydroxy-4,4-dimethylpentyl)-5-methyl-1-phenyl-4,5-dihydro-1H-pyrazole-5-carboxamide], for which the IC50 with A549 cells, in the assay on LOX cells and in the assay with MelJuSo cells was greater than 2 µM each time.
For the compound `CCCCC1C(c2ccc(F)cc2)=NN(c2cccc(C)c2)C1(C)C(=O)NCCOC` (stereo not drawn) [Compound 55, 4-butyl-3-(4-fluorophenyl)-N-(2-methoxyethyl)-5-methyl-1-m-tolyl-4,5-dihydro-1H-pyrazole-5-carboxamide], the IC50 in the assay on A549 cells is 0.25 to 0.5 µM; in the assay on LOX cells, less than 0.25 µM; in the assay on MelJuSo cells it was less than 0.25 µM.
Take `CCCCC1C(c2ccc(F)cc2)=NN(c2ccc(F)cc2F)C1(C)C(=O)NCC(=O)OC` (stereo not drawn) [Compound 81, methyl 2-(4-butyl-1-(2,4-difluorophenyl)-3-(4-fluorophenyl)-5-methyl-4,5-dihydro-1H-pyrazole-5-carboxamido)acetate]: the figures for the IC50 in the assay with A549 cells, with LOX cells and in the assay on MelJuSo cells were 0.5 to 1 µM, 0.5 to 1 µM and less than 0.25 µM, respectively.
For `CCCCC1C(c2ccc(F)cc2)=NN(c2cccc(Cl)c2)C1(C)C(=O)NCCCC(C)(C)CO` (stereo not drawn) [Compound 17, 4-butyl-1-(3-chlorophenyl)-3-(4-fluorophenyl)-N-(5-hydroxy-4,4-dimethylpentyl)-5-methyl-4,5-dihydro-1H-pyrazole-5-carboxamide], the IC50 in the assay on A549 cells was 1 to 2 µM; with LOX cells, 1 to 2 µM; with MelJuSo cells, 0.25 to 0.5 µM.
As to `COCCNC(=O)C1(C)C(c2ccc(Cl)o2)C(c2ccc(F)cc2F)=NN1c1ccc(F)cc1F` (stereo not drawn) [Compound 120, 4-(5-chlorofuran-2-yl)-1,3-bis(2,4-difluorophenyl)-N-(2-methoxyethyl)-5-methyl-4,5-dihydro-1H-pyrazole-5-carboxamide], the IC50 with A549 cells, in the assay with LOX cells and with MelJuSo cells was less than 0.25 µM throughout.
On to `CC(C)(CO)CCCNC(=O)C1(C)C(c2ccncc2)C(c2ccc(F)cc2)=NN1c1ccccc1` (stereo not drawn) [Compound 21, 3-(4-fluorophenyl)-N-(5-hydroxy-4,4-dimethylpentyl)-5-methyl-1-phenyl-4-(pyridin-4-yl)-4,5-dihydro-1H-pyrazole-5-carboxamide], for which the IC50 with A549 cells, in the assay with LOX cells and with MelJuSo cells was greater than 2 µM throughout.
Turning to `CN1CCOC(CNC(=O)C2(C)C(c3cccs3)C(c3ccc(F)cc3)=NN2c2ccc(F)cc2F)C1` (stereo not drawn) [Compound 127, 1-(2,4-difluorophenyl)-3-(4-fluorophenyl)-5-methyl-N-((4-methylmorpholin-2-yl)methyl)-4-(thiophen-2-yl)-4,5-dihydro-1H-pyrazole-5-carboxamide], the IC50 in the assay with A549 cells was 0.5 to 1 µM; in the assay on LOX cells, 0.5 to 1 µM; in the assay on MelJuSo cells, less than 0.25 µM.
